“Also recorded” adds a separate entry of the source.
Experiments:
[1] = Approximate solubility of technical grade active ingredients in the adjuvant solvents (shaker, iterative approach); settings: for solubility in the three solvents, in words: Solvents I, II and III taken together
Procedure: Solubility studies were conducted using three materials to determine their ability to dissolve various biocide active ingredients: Solvent I-formula 1(a); Solvent II-formula 1(b); and Solvent III-formula 3(a). Active ingredients were chosen from three classes of biocides and primarily reflected difficult to dissolve actives. The following biocides were evaluated.
The approximate solubility of each technical grade active ingredient was determined in each of the solvents.
All examples were conducted on a 100 gram or 50 gram scale. The Dimethoate, 2,4-D, mesotrione and halosulfuron examples were conducted at 50 gram scale. All other examples were conducted on a 100 gram scale.
An amount of solvent was weighed into a 4 ounce jar (or 2 oz). An amount of active ingredient was weighed and added to the solvent in the jar. The jar was capped tightly and placed on a New Brunswick Scientific model C1 platform shaker. The samples were shaken at the 75% setting for 1 hour. During the mixing and after 1 hour each sample was examined and completeness of solubility noted. Using an iterative approach, an approximate solubility for each active ingredient in each of the solvents was determined. Each sample was allowed to sit undisturbed for 1 hour after mixing to determine if any crystallization would occur in those samples which dissolved.

[2] = cited from earlier work
[3] = Solvent I (formula 1(a)), % solids by weight, shaken 1 hour, minimum concentration tested 2.5%
[4] = Solvent II (formula 1(b)), % solids by weight, shaken 1 hour, minimum concentration tested 2.5%
[5] = Solvent III (formula 3(a)), % solids by weight, shaken 1 hour, minimum concentration tested 2.5%

Row | SMILES | solubility in the three solvents, in words [1] | approximate solubility range in Solvent I [1, 3] [%] | approximate solubility range in Solvent I ([1]; 1 h) | approximate solubility range in Solvent II ([1]; 1 h) | approximate solubility range in Solvent III ([1]; 1 h) | approximate solubility range in Solvent II [1, 4] [%] | also measured
1 | O=C(O)COc1ccc(Cl)cc1Cl [2,4-D] | did dissolve |  |  |  |  |  | 
2 | COc1c(Cl)ccc(Cl)c1C(=O)O [Dicamba] | greatest solubility; also recorded: did dissolve | <10 |  |  |  |  | 
3 | OC(Cn1cncn1)(c1ccc(F)cc1)c1ccccc1F (stereo not drawn) [Flutrifol] |  |  | >2.5%; <5% | >2.5%; <5% | >5%; <20% |  | 
4 | CS(=O)(=O)NC(=O)c1cc(Oc2ccc(C(F)(F)F)cc2Cl)ccc1[N+](=O)[O-] [Fomesafen] |  |  | <2.5% | >2.5%; <10% | >5%; <10% |  | 
5 | CC1(C)[C@H](C(=O)O[C@H](C#N)c2cccc(Oc3ccccc3)c2)[C@@H]1/C=C(\Cl)C(F)(F)F [Gamma cyhalothrin] | greatest solubility | >80 |  |  |  | >80 | approximate solubility range in Solvent III [1, 5]: >80%
6 | O=C(O)CNCP(=O)(O)O [Glyphosate] | not very soluble | <2.5 |  |  |  | <2.5 | approximate solubility range in Solvent III [1, 5]: <2.5%; solubility in most solvents, including water ([2]; most solvents, including water): not soluble to any great extent
7 | COc1cc(OC)nc(NC(=O)NS(=O)(=O)c2c(C(=O)O)c(Cl)nn2C)n1 [Halosulfuron] |  |  | <2.5% | <2.5% | >2.5%; <5% |  | 
8 | CS(=O)(=O)c1ccc(C(=O)C2C(=O)CCCC2=O)c([N+](=O)[O-])c1 [Mesotrione] |  | <2.5 |  |  |  | <2.5 | solubility in Solvent III, in words ([1]; Solvent III): soluble; solubility in acetonitrile and acetone ([2]; acetonitrile and acetone): limited solubility
9 | COCC(=O)N(c1c(C)cccc1C)C(C)C(=O)OC (stereo not drawn) [Metalaxyl] | greatest solubility |  |  |  |  |  | 
10 | CCOC(=O)CCC(C)=O [Solvent III] |  |  |  |  |  |  | solvating properties compared among the three solvents ([1]; in all but one active ingredient, for those active ingredients which were soluble): best solvating properties
